{"source": "patent US8748568B2", "about": "“Isolated A-type FHF N-terminal domain peptides and methods of use” (Research Foundation of The City University of New York, priority 2009, dated 2014)", "key": {"[1]": {"system": "TTX-resistant Nav1.6", "test": "Whole cell voltage clamp of Nav1.6 currents in Neuro2A cells: long-term inactivation through repeated depolarization cycles", "assay_type": "cell-based", "protocol": "[…]. Nav1.6 currents were analyzed in cells without FHFs (upper panels) or after transient transfection with a DNA vector expressing full-length FHF2A protein (lower panels). The holding voltage was −90 mV. Cells were subjected to two 6 millisecond depolarizations at 0 mV separated by −90 mV interpulse recovery periods of 0.5 to 20 msec (left panels). All 40 command sweeps are shown.\nNeuro2A cells expressing TTX-resistant Nav1.6 were transfected with DNA expression vectors for FHF1A, FHF1B, FHF2A, FHF2B, or FHF4B. Transfected cells in the presence of TTX were subjected to four 16 millisecond depolarization cycles (0 mV) separated by 40 millisecond recovery periods (−90 mV), and peak inward Nav1.6-mediated sodium currents were recorded for each depolarization.\nA Neuro2A cell expressing TTX-resistant Nav1.6 and transfected to express FHF2A was analyzed for the voltage dependence of steady state inactivation, long-term inactivation, and activation, using specific voltage command protocols. For steady state inactivation, cells were held at different “test command” voltages for 60 milliseconds followed immediately by further depolarization to 0 mV; the residual peak current derives from channels not inactivated (i.e. still available). For long term inactivation, cells were held at different “test command” voltages for 60 milliseconds, with each test command followed by 40 millisecond recovery at −90 mV before depolarization to 0 mV; peak current derives from channels that have not undergone long-term inactivation. For activation, cells were depolarized to different “test command” voltages, and peak inward currents were converted to percent maximum conductance to reflect percentage of channels transiently activated.\n(§1) Neuro2A cells expressing TTX-resistant Nav1.6 were analyzed for TTX-resistant sodium currents following whole cell patch clamp using pipette solution containing peptide corresponding to N-terminal residues 2-21 of FHF2A (referred to as ANTD, for A-type N-terminal domain). Peptide injected cells were subjected to four 16 millisecond depolarization cycles (0 mV) separated by 40 millisecond recovery periods (−90 mV), and peak inward Nav1.6-mediated sodium currents were recorded for each depolarization."}, "[2]": {"system": "mutant VGSC in which the fast inactivation particle was disabled (Nav1.6)", "test": "Long-term inactivation of mutant VGSC with disabled fast inactivation particle, whole cell voltage clamp", "assay_type": "cell-based", "conditions": "single cycle of membrane depolarization", "protocol": ". Nav1.6 currents were analyzed in cells without FHFs (left panels—FIG. 7) or after transient transfection with a DNA vector expressing full-length FHF2A protein (right panels—FIG. 7)."}, "[3]": {"system": "TTX-resistant Nav1.6", "test": "Voltage dependence of steady state inactivation of Nav1.6 in Neuro2A cells", "assay_type": "cell-based", "protocol": "A Neuro2A cell expressing TTX-resistant Nav1.6 and transfected to express FHF2A was analyzed for the voltage dependence of steady state inactivation, long-term inactivation, and activation, using specific voltage command protocols. For steady state inactivation, cells were held at different “test command” voltages for 60 milliseconds followed immediately by further depolarization to 0 mV; the residual peak current derives from channels not inactivated (i.e. still available). For long term inactivation, cells were held at different “test command” voltages for 60 milliseconds, with each test command followed by 40 millisecond recovery at −90 mV before depolarization to 0 mV; peak current derives from channels that have not undergone long-term inactivation. […]\nas §1"}, "[4]": {"system": "cerebellar granule neurons", "test": "Voltage clamp and current clamp of cultured cerebellar granule neurons", "assay_type": "cell-based, Mouse", "conditions": "1 mM peptide injected", "protocol": "Mouse cerebellar granule neurons were cultured for 14 days under conditions that promoted their maturation to a fully excitable state. These neurons were Whole cell patched and subjected to voltage clamp and current clamp protocols. In voltage clamp, neurons were depolarized four times for 16 milliseconds to 0 mV with 40 millisecond interpulse recoveries at −90 mV (left panels). In current clamp, positive current injection for 800 milliseconds was used to trigger firing of action potentials. A range of currents were tested, and only the recordings from currents giving highest frequency and amplitude of action potentials are shown (right panels)."}, "[5]": {"conditions": "four 16 msec depolarization cycles at 0 mV separated by 40 msec recoveries at -90 mV, cells transfected with FHF expression vector"}}, "note": "Entries after “also recorded” stand apart in the source; their conditions may differ.", "data": [{"molecule": "FHF2A: full-length FHF2A protein, fibroblast growth factor homologous factor, expressed from a transfected DNA vector (AAAIASSLIRQKRQAREREK)", "values": [{"measurement": "percentage of channels that undergo long-term inactivation", "setting": "[1]; 60 msec test command, 40 msec recovery at -90 mV, then 0 mV, not increased by further depolarization", "result": "35-40%"}, {"measurement": "long-term inactivation of Nav1.6", "setting": "[1]; [5]", "result": "induce long-term inactivation"}, {"measurement": "long-term inactivation of Nav1.6", "setting": "[1]; four 16 msec depolarization cycles at 0 mV separated by 40 msec recoveries at -90 mV, cells transfected with FHF expression vector, listed as FHF2A protein", "result": "channels accumulate into a long-term inactivated state with each depolarization cycle; also recorded: induces both long-term inactivation"}, {"measurement": "voltage at which long-term inactivation occurs relative to steady state inactivation", "setting": "[1]; test command voltage protocols, FHF2A-transfected cell", "result": "far more depolarized voltage than steady state inactivation"}, {"measurement": "fraction of channels that do not rapidly recover from inactivation", "setting": "[1]; two 6 msec depolarizations at 0 mV, -90 mV interpulse recovery 0.5 to 20 msec, cells transfected with FHF vector", "result": "approximately one-third"}, {"measurement": "channels driven into long-term inactivation", "setting": "[2]", "result": "nearly all channels being driven into long-term inactivation"}, {"measurement": "effect on voltage dependence of steady state (fast) inactivation of Nav1.6", "setting": "[3]", "result": "depolarizing shift"}]}, {"molecule": "AAAIASSLIRQKRQAREREK [ANTD peptide, peptide corresponding to N-terminal residues 2-21 of FHF2A]", "values": [{"measurement": "action potentials generated upon current injection", "setting": "[4]; current clamp, 800 msec positive current injection", "result": "only a single action potential"}, {"measurement": "inward sodium currents", "setting": "[4]; voltage clamp, four 16 msec depolarizations to 0 mV, 40 msec recoveries at -90 mV", "result": "decrease with each cycle of depolarization"}, {"measurement": "outward potassium currents", "setting": "[4]; voltage clamp, four depolarization cycles", "result": "unaffected"}, {"measurement": "long-term inactivation of Nav1.6", "setting": "[1]; 0.5 mM peptide in pipette solution, four 16 msec depolarization cycles, 40 msec recoveries", "result": "induced long-term inactivation, albeit to lesser degree"}, {"measurement": "long-term inactivation of Nav1.6", "setting": "[1]; 1 mM peptide in pipette solution, four 16 msec depolarization cycles, 40 msec recoveries", "result": "robust accumulation into long-term inactivation"}, {"measurement": "dose dependence of peptide-induced long-term inactivation", "setting": "[1]; 1 mM versus 0.5 mM", "result": "dose dependent"}, {"measurement": "onset of long-term inactivation", "setting": "[1]; 1 millimolar peptide, compared with native protein", "result": "faster onset of long-term inactivation than the native protein"}, {"measurement": "channels driven into long-term inactivation", "setting": "[2]", "result": "nearly all"}, {"measurement": "effect on voltage dependence of steady state (fast) inactivation of Nav1.6", "setting": "[3]", "result": "no significant effect"}]}, {"molecule": "FHF1B: B-type fibroblast growth factor homologous factor expressed from a DNA expression vector (protein) MESKEPQLKGIVTRLFSQQGYFLQMHPDGTIDGTKDENSDYTLFNLIPVGLRVVAIQGVKASLYVAMNGEGYLYSSDVFTPECKFKESVFENYYVIYSSTLYRQQESGRAWFLGLNKEGQIMKGNRVKKTKPSSHFVPKPIEVCMYREPSLHEIGEKQGRSRKSSGTPTMNGGKVVNQDST", "values": [{"measurement": "long-term inactivation of Nav1.6", "setting": "[1]; [5]", "result": "do not"}]}, {"molecule": "FHF2B: B-type fibroblast growth factor homologous factor expressed from a DNA expression vector (protein) MALLRKSYSEPQLKGIVTKLYSRQGYHLQLQADGTIDGTKDEDSTYTLFNLIPVGLRVVAIQGVQTKLYLAMNSEGYLYTSELFTPECKFKESVFENYYVTYSSMIYRQQQSGRGWYLGLNKEGEIMKGNHVKKNKPAAHFLPKPLKVAMYKEPSLHDLTEFSRSGSGTPTKSRSVSGVLNGGKSMSHNEST", "values": [{"measurement": "long-term inactivation of Nav1.6", "setting": "[1]; [5]", "result": "do not"}]}, {"molecule": "FHF4B: B-type fibroblast growth factor homologous factor expressed from a DNA expression vector (protein) MVKPVPLFRRTDFKLLLCNHKDLFFLRVSKLLDCFSPKSMWFLWNIFSKGTHMLQCLCGKSLKKNKNPTDPQLKGIVTRLYCRQGYYLQMHPDGALDGTKDDSTNSTLFNLIPVGLRVVAIQGVKTGLYIAMNGEGYLYPSELFTPECKFKESVFENYYVIYSSMLYRQQESGRAWFLGLNKEGQAMKGNRVKKTKPAAHFLPKPLEVAMYREPSLHDVGETVPKPGVTPSKSTSASAIMNGGKPVNKSKTT", "values": [{"measurement": "long-term inactivation of Nav1.6", "setting": "[1]; [5]", "result": "do not"}]}]}
